In patent US20130295551A1, “MICROFLUIDIC DEVICE AND METHOD FOR MODULATING A GAS ENVIRONMENT OF CELL CULTURES AND TISSUES” (THE BOARD OF TRUSTEES OF THE UNIVERSITY OF ILLINOIS, priority 2012, published 2013):

What was measured:
Format in all cases: cell-based, C57BL/6 mice
islets [1] = assay: Islet glucose-stimulated calcium response (FURA ratio) under hypoxia in microfluidic device
Protocol: To quantify their response to hypoxia, FURA-incubated islets were loaded into the multimodal device and exposed to 21%, 10%, and 5% oxygen while monitoring their calcium responses. In the GSIR mechanism, the calcium response correlates with insulin secretion, thus a stimulatory glucose pulse will result in a pulse in intracellular calcium. Under 21% oxygen flow, normoxic for ex vivo islets, the calcium responded with standard bi-phasic profile with magnitudes 1.3 times above their baseline, as shown in FIG. 8A. Note that subsequent hypoxic conditions were normalized against this normoxic pulse. When the islets were exposed to 5% hypoxia for 30 minutes (under zero flow), their calcium response lost both pulse magnitude as well as phase information. […] Quantitatively, the pulse height was depressed below 50% of the normoxic pulse, for both 10% and 5% hypoxia.
Islets were incubated in 100 μM diazoxide for 10 minutes and washed in Krebs buffer for 10 minutes prior to hypoxia and glucose stimulation. […] Both mitochondrial hyperpolarization and insulin secretion were improved with diazoxide compared to IH+5HD, as shown in FIG. 10B.
C57BL/6 mice were sacrificed as islet donors for the murine islet experiments. 5 ml collagenase P solution at 0.375 mg/ml in HBSS was prepared for each animal and kept on ice. The animal was euthanized with CO2 and 3% isoflurane followed by cervical dislocation to ensure no discomfort. The animal was disinfected with 70% ethanol before making a V-incision at the genital area and moving the bowel to clearly expose the bile duct. The ampulla on the surface of duodenum was clamped with a hemostat. The pancreas was then distended (inflated) through the bile duct with a 30-gauge needle with 5 ml syringe containing 2 ml of cold collagenase solution, starting at the gall bladder. The pancreas was then removed and placed in a 15 ml tube containing 2 ml of collagenase solution in a 37° C. water bath for 12 minutes. Then, 10 ml of cold HBSS was added to stop the digestion when 80% of the pancreas has disintegrated. […]

islets [2] = assay: Islet mitochondrial hyperpolarization by Rhodamine 123 fluorescence
Protocol: The effects of hypoxia and intermittent hypoxia preconditioning on calcium were paralleled by changes in insulin secretion and mitochondrial potential, as measured by off-chip insulin ELISA and Rhodamine 123 fluorescence, respectively. Insulin fractions were collected at 1 minute intervals during flow, with a stop-flow incubation period during the glucose exposure, as shown in FIG. 10A. The hypoxic pulse rendered insulin response down to basal levels (even drifting below baseline) while preconditioning improved insulin to 85% of normoxia while exposed to hypoxia. However, all insulin samples were collected in the same manner to account for this issue. Mitochondria hyperpolarization, monitored with Rhodamine uptake and self-quenching, was improved with IH preconditioning compared to hypoxia exposure alone. […] Islets were incubated in 100 μM diazoxide for 10 minutes and washed in Krebs buffer for 10 minutes prior to hypoxia and glucose stimulation. […] Both mitochondrial hyperpolarization and insulin secretion were improved with diazoxide compared to IH+5HD, as shown in FIG. 10B. […] All fluids perfused through the MIIH device were prepared in Krebs Ringer bicarbonate buffer: 129 mM NaCl, 5 mM NaHCO3, 4.7 mM KCl, 1.2 mM KH2PO4, 1 mM CaCl2.2H2O, 1.2 mM MgSO4.7H2O, 10 mM HEPES pH 7.35-7.40. […] FURA was excited at 340 and 380 nm and measured at 510 nm while Rho123 was excited at 495 nm and measured at 530 nm FURA measurements were expressed as a ratio of 340 nm over 380 nm intensities. […] The data was then normalized against the standard normoxic pulse to minimize variation between experiments and the results were expressed as “FURA Ratio %”. Rho123 measurement and the associated hyperpolarization drop were also analyzed similarly by normalizing against a normoxic standard. The insulin ELISA timepoints, measured in ng/mL, was expressed as an index of the maximum value over the baseline average to account for the stop flow during glucose/hypoxic incubation and also varying number of islets in the experiments. […]

islets [3] = assay: Islet insulin secretion, off-chip insulin ELISA
Protocol: The effects of hypoxia and intermittent hypoxia preconditioning on calcium were paralleled by changes in insulin secretion and mitochondrial potential, as measured by off-chip insulin ELISA and Rhodamine 123 fluorescence, respectively. Insulin fractions were collected at 1 minute intervals during flow, with a stop-flow incubation period during the glucose exposure, as shown in FIG. 10A. The hypoxic pulse rendered insulin response down to basal levels (even drifting below baseline) while preconditioning improved insulin to 85% of normoxia while exposed to hypoxia. However, all insulin samples were collected in the same manner to account for this issue. Mitochondria hyperpolarization, monitored with Rhodamine uptake and self-quenching, was improved with IH preconditioning compared to hypoxia exposure alone. […] Islets were incubated in 100 μM diazoxide for 10 minutes and washed in Krebs buffer for 10 minutes prior to hypoxia and glucose stimulation. […] Both mitochondrial hyperpolarization and insulin secretion were improved with diazoxide compared to IH+5HD, as shown in FIG. 10B. […] Glucose and Krebs buffer flow were only introduced while washing or stimulating the islets, and flow was stopped at all other times. […] The plates were read in a Biotek Synergy 2 plate reader. […] FURA was excited at 340 and 380 nm and measured at 510 nm while Rho123 was excited at 495 nm and measured at 530 nm FURA measurements were expressed as a ratio of 340 nm over 380 nm intensities. […] The data was then normalized against the standard normoxic pulse to minimize variation between experiments and the results were expressed as “FURA Ratio %”. Rho123 measurement and the associated hyperpolarization drop were also analyzed similarly by normalizing against a normoxic standard. The insulin ELISA timepoints, measured in ng/mL, was expressed as an index of the maximum value over the baseline average to account for the stop flow during glucose/hypoxic incubation and also varying number of islets in the experiments. […]

[4] = 100 μM diazoxide, not statistically significant
[5] = 100 μM diazoxide, 5% hypoxia, FIG. 10B

CCCCCC(O)CCCC(=O)O (stereo not drawn) [5HD, 5-hydroxydecanoic acid]
preconditioning of islets under hypoxia (FURA profile) (islets [1]; IH (1 m/1 m cycle, 60 min total) and 100 μM 5HD simultaneously): failed to be preconditioned | mitochondrial hyperpolarization with 5HD (islets [2]; IH plus 5HD): decreased mitochondrial hyperpolarization | preconditioned insulin response with 5HD (islets [3]; IH plus 5HD): decoupling of preconditioned insulin response

CC1=NS(=O)(=O)c2cc(Cl)ccc2N1 [diazoxide]
preconditioning of islets under hypoxia (glucose calcium response) (islets [1]; 100 μM diazoxide 10 minutes, washed in Krebs buffer 10 minutes prior to 5% hypoxia and glucose stimulation): provided preconditioning benefits | calcium response compared to IH preconditioning alone (islets [1]; [4]): higher average | mitochondrial hyperpolarization compared to IH+5HD (islets [2]; [5]): improved | mitochondrial hyperpolarization compared to IH preconditioning alone (islets [2]; [4]): less than that of IH preconditioning alone | insulin secretion compared to IH+5HD (islets [3]; [5]): improved | insulin response compared to IH preconditioning alone (islets [3]; [4]): higher average
